Experimental data: BigSolDB 2.1

COc1cc(-c2cc(-c3ccc(Br)cc3)[nH]c(=O)c2C#N)ccc1O
solubility (mole fraction)
Conditions	in 1,4-dioxane	in chloroform	in ethanol	in ethyl acetate	in methanol	in n-butanol	in n-propanol
298.15 K	0.0014	0.00114	0.00071	0.00109	0.000523	0.000338	0.000757
303.15 K	0.00148	0.00119	0.00075	0.00116	0.000555	0.000384	0.0008
308.15 K	0.00155	0.00123	0.000789	0.00124	0.000587	0.00043	0.000843
313.15 K	0.00163	0.00128	0.000832	0.00132	0.000615	0.000484	0.0009
318.15 K	0.0017	0.00133	0.000876	0.0014	0.000642	0.000538	0.000951
323.15 K	0.00177	0.00137	0.000919	0.00148	0.000682	0.000614	0.000997
328.15 K	0.00184	0.00142	0.000972	0.00156	0.000722	0.000691	0.00105

COc1cc(-c2cc(-c3ccc(O)cc3)[nH]c(=O)c2C#N)ccc1O
solubility (mole fraction)
Conditions	in 1,4-dioxane	in chloroform	in ethanol	in ethyl acetate	in methanol	in n-butanol	in n-propanol
298.15 K	0.00153	0.00123	0.000745	0.00106	0.000574	0.000511	0.000847
303.15 K	0.00161	0.0013	0.000786	0.00111	0.000605	0.000566	0.000882
308.15 K	0.00169	0.00137	0.000828	0.00117	0.000635	0.00062	0.000927
313.15 K	0.00178	0.00144	0.000876	0.00122	0.000664	0.000674	0.00098
318.15 K	0.00187	0.00151	0.000922	0.00127	0.000693	0.000728	0.00104
323.15 K	0.00195	0.00157	0.000976	0.00134	0.000724	0.000794	0.00111
328.15 K	0.00203	0.00164	0.00103	0.0014	0.000754	0.000861	0.00116

COc1cc(-c2cc(-c3ccc(Cl)cc3)[nH]c(=O)c2C#N)ccc1O
solubility (mole fraction)
Conditions	in 1,4-dioxane	in chloroform	in ethanol	in ethyl acetate	in methanol	in n-butanol	in n-propanol
298.15 K	0.00149	0.00118	0.00073	0.00123	0.000577	0.0004	0.000791
303.15 K	0.00156	0.00123	0.00077	0.00132	0.000603	0.000445	0.000836
308.15 K	0.00163	0.00129	0.00081	0.0014	0.000629	0.000489	0.000882
313.15 K	0.00172	0.00135	0.000861	0.0015	0.000653	0.000549	0.000929
318.15 K	0.00181	0.00141	0.000905	0.00159	0.000677	0.000609	0.000976
323.15 K	0.00189	0.00149	0.000948	0.00168	0.000705	0.000672	0.00102
328.15 K	0.00197	0.00157	0.001	0.00177	0.000732	0.000735	0.00107

COc1ccc(-c2cc(-c3ccc(O)c(OC)c3)c(C#N)c(=O)[nH]2)cc1
solubility (mole fraction)
Conditions	in 1,4-dioxane	in chloroform	in ethanol	in ethyl acetate	in methanol	in n-butanol	in n-propanol
298.15 K	0.00145	0.00111	0.00069	0.00107	0.000472	0.000297	0.000733
303.15 K	0.00154	0.00116	0.000724	0.00115	0.000502	0.000344	0.000782
308.15 K	0.00162	0.0012	0.000759	0.00123	0.000532	0.000389	0.000827
313.15 K	0.00171	0.00124	0.000802	0.00129	0.000562	0.000443	0.000886
318.15 K	0.0018	0.00129	0.000846	0.00136	0.000592	0.000497	0.000934
323.15 K	0.00189	0.00134	0.000899	0.00145	0.000625	0.000565	0.00098
328.15 K	0.00199	0.00138	0.000953	0.00154	0.000659	0.000633	0.00103

COc1cc(-c2cc(-c3ccc(F)cc3)[nH]c(=O)c2C#N)ccc1O
solubility (mole fraction)
Conditions	in 1,4-dioxane	in chloroform	in ethanol	in ethyl acetate	in methanol	in n-butanol	in n-propanol
298.15 K	0.00156	0.00134	0.000762	0.00133	0.000618	0.000531	0.000864
303.15 K	0.00164	0.00139	0.000809	0.00142	0.000638	0.000589	0.000907
308.15 K	0.00173	0.00145	0.000848	0.0015	0.000658	0.000648	0.00095
313.15 K	0.00183	0.00151	0.000897	0.0016	0.000688	0.000707	0.00101
318.15 K	0.00193	0.00158	0.000946	0.00169	0.000718	0.000767	0.00108
323.15 K	0.00202	0.00167	0.001	0.00178	0.000754	0.000835	0.00113
328.15 K	0.00211	0.00176	0.00106	0.00187	0.00079	0.000903	0.00119
